We go through 5 molecules from ChEMBL document CHEMBL1201862, “PubChem BioAssay data set” (2004).

Calls of active or inactive are those of the source.

Experiment [1] is described as follows: inhibitors of intracellular T. cruzi replication, confirmation, NIH3T3 host cells, beta-gal luminescence (AID 2044).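 Further: intracellular parasites grown in NIH/3T3 mouse fibroblasts as host cells; luminescent beta-galactosidase reporter signal from transgenic T. cruzi replicating inside host cells; inhibitors lower the luminescence signal.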 Type of experiment: functional, cell-based.
Experiment [2] concerns the target T1, Microphthalmia-associated transcription factor (Homo sapiens, UniProt O75030).
T1 sequence (O75030 whole entry): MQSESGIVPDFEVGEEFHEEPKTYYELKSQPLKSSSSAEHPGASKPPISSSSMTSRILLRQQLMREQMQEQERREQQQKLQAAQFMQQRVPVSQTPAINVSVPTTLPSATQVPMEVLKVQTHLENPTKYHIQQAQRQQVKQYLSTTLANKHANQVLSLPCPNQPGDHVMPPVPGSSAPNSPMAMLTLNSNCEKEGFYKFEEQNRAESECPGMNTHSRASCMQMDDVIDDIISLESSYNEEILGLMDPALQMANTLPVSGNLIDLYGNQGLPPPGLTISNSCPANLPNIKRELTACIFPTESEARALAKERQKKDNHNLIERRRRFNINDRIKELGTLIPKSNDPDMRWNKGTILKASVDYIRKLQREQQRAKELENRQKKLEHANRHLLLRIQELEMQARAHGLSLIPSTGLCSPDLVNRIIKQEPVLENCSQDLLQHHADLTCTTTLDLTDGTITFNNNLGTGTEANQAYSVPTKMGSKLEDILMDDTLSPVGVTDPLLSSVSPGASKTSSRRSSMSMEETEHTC
The experiment is described as follows: TRPM1 promoter luciferase signal decrease, dose response, MITF inhibitor project, cell-based, SK-MEL-5, cherry-picked, set 3 (AID 493073).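 Further: SK-MEL-5 melanoma cells with luciferase driven by the MITF target TRPM1 promoter.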 Type of experiment: functional.

Experiment [3] can be described thus: cells.
The nature of experiment [4]: Luminescence Cell-Based Secondary HTS screen to identify cytotoxic compounds of NIH3T3 cells. [Related pubchem assays: 1885, 1968 ]. It is filed as functional.
Experiment [5] concerns INS1. Nature of the experiment: beta cell apoptosis inhibitors, cytokine rescue, dose response, luminescence, retest (AID 449756).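 Further: cell death triggered by IL-1 beta plus TNF-alpha plus IFN-gamma mixture; protective hits raise ATP signal compared with cytokine alone wells.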 Type of experiment: functional, cell-based. As to conditions: Rattus norvegicus.
The nature of experiment [6]: cytotoxicity toward NIH3T3 fibroblasts, dose response, counter-screen, cell-based, ATP luminescence, mouse fibroblasts (AID 2010).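 Further: cells exposed to compound for about 90 hours before reading.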 Type of experiment: functional. (A counterscreen serves to expose hits that act by an unwanted route or on another target.)
A short description of experiment [7]: inhibitors of Trypanosoma cruzi host-cell infection, confirmation, beta-gal luminescence, NIH3T3 host cells (AID 2630). It is filed as functional, cell-based. As to conditions: Mus musculus.
Experiment [8] in a line: Luminescence Cell-Based/Microorganism Confirmation at Dose of Inhibitors of Trypanosoma cruzi Infection. [Related pubchem assays: 1885, 1968 ]. It is filed as functional.
Experiment [9] concerns the target T2, Ubiquitin-conjugating enzyme E2 N (Homo sapiens, UniProt P61088).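 Further: Dose-response confirmation in a TR-FRET assay detecting UBC13-driven polyubiquitin chain formation, inhibition measured.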
T2 sequence (P61088 whole entry): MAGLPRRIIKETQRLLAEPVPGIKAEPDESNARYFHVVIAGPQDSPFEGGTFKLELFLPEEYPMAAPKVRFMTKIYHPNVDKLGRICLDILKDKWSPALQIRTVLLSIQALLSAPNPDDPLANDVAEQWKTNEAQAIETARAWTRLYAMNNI
Type of experiment: functional.

Experiment [10] relates to Escherichia coli. The experiment is described as follows: microbe, parasite or virus in culture.
The target of experiment [11] is Lysine-specific demethylase 4A (Homo sapiens, UniProt O75164). Nature of the experiment: JMJD2A histone demethylase inhibitors, dose response, selectivity assay for GASC-1 inhibitor project, biochemical, DELFIA europium, cherry-picked samples (AID 488840).
Experiment [12] concerns Escherichia coli. The experiment is described as follows: microbe, parasite or virus in culture. The source holds these as a separate data set.
In experiment [13] the target is T3, Short transient receptor potential channel 4 (Mus musculus, UniProt Q9QUQ5).
T3 sequence (Q9QUQ5 whole entry): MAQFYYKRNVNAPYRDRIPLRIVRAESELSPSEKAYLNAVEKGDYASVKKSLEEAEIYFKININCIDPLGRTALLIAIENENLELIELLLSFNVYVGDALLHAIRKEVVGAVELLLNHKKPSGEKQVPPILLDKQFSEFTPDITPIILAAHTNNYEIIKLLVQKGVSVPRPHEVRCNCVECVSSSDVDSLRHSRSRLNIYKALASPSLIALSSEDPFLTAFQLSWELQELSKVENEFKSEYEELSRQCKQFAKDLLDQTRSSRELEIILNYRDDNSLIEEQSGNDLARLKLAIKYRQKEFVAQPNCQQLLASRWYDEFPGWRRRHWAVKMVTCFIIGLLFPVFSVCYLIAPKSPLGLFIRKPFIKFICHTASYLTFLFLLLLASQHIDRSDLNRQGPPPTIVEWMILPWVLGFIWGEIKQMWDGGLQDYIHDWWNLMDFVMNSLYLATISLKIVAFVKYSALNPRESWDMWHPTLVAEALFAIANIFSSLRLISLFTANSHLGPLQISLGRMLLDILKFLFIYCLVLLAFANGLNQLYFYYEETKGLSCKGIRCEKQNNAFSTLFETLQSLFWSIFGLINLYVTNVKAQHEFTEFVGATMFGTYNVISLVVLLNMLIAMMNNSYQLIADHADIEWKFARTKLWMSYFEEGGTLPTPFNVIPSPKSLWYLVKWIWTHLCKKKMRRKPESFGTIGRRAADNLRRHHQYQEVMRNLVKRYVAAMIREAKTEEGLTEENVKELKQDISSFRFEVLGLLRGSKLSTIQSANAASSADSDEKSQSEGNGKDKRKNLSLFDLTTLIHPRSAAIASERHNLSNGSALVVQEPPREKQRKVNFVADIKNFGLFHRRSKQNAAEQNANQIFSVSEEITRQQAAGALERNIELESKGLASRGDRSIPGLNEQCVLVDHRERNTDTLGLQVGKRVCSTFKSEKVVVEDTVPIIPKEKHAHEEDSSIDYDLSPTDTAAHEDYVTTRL
Nature of the experiment: TRPC4 inhibitor concentration-response, dose response, cell-based, HEK293 TRPC4/mu-opioid, DAMGO stimulus, Fluo-4 (AID 492994). Type of experiment: functional.

Experiment [14] has as its target T3, Short transient receptor potential channel 4. Nature of the experiment: SAR Analysis for the identification of selective inhibits of the transient receptor potential cation channel C4 (TRPC4): Automated Electrophysiology_2. [Related pubchem assays (depositor defined):AID2256]. Type of experiment: functional.
Experiment [15] deals with INS1. The experiment is described as follows: protection from cytokine-induced mitochondrial depolarization, dose response, cell-based, INS-1E, JC-1 fluorescence ratio, dry powder (AID 488931). Type of experiment: functional. As to conditions: Rattus norvegicus.
In experiment [16] the test system is INS1. Nature of the experiment: protection of INS-1E cells from cytokine death, dose response, ATP luminescence, dry powder (AID 488844). Type of experiment: functional, cell-based. Conditions: Rattus norvegicus.

Sequence of Lysine-specific demethylase 4A (O75164 whole entry): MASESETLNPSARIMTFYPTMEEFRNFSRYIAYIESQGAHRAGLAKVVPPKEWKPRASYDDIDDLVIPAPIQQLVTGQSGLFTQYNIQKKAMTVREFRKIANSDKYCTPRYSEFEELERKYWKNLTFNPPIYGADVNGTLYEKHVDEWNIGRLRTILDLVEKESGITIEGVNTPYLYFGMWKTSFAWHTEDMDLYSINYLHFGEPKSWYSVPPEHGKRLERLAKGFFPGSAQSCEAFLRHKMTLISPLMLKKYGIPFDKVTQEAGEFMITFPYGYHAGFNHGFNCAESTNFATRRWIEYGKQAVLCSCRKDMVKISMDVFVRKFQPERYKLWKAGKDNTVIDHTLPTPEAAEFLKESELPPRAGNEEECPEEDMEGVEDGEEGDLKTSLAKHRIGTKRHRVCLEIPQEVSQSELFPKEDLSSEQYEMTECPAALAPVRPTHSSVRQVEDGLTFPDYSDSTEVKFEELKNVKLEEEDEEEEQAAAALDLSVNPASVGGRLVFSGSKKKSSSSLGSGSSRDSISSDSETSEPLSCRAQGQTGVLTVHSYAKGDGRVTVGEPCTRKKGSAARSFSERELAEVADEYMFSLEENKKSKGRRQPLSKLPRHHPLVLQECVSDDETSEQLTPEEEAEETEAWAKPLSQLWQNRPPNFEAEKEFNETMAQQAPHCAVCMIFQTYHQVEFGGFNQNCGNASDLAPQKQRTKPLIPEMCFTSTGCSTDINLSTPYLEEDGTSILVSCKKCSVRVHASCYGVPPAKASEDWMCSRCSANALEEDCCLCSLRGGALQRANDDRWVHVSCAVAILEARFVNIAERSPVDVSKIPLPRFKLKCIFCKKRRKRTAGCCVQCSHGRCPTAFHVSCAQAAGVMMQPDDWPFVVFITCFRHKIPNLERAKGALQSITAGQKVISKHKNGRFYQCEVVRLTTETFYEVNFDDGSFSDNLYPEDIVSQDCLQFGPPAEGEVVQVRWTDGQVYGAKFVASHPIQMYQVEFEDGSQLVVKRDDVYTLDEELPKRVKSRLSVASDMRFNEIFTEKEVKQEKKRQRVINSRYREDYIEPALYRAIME

A word on the EC50: it is the midpoint of the concentration-response curve. Usually AC50 stands for the concentration at which the activity in the assay is half-maximal. Take `Cc1ccc(NC(=O)CCC(=O)N/N=C/c2ccc([N+](=O)[O-])o2)cc1C`: the EC50 was < 0.1 µM (active) in [1]; 0.016 µM (active) in experiment [3]; > 195 µM (not active) in experiment [4]; > 30 µM (not active) in experiment [6]; 0.032 µM (active) in experiment [7]; 0.032 µM (active) in [8]. The AC50 in experiment [2] is 6.25 µM (active); in experiment [5], 7.44 µM (active).

Usually IC50 stands for the concentration needed to halve the response being measured. For `C[C@@H](CN1CCC[C@H]1CN1C(N)=NC[C@@H]1Cc1ccccc1)N1C[C@@H](Cc2ccccc2)N(CCc2ccc(Cl)c(Cl)c2)C1=N`, the IC50 in experiment [9] is > 20 µM (inactive). Further, the results for the half-maximal activity concentration (AC50) in experiment [10], in [11] and in [12] were 15.6 µM (active), 9.21 µM (active) and 24.1 µM (active), respectively.

On to `CCN(CC)c1cc(C)c2ccccc2n1`, for which the half-maximal inhibitory concentration (IC50) was 5.24 µM (active) in experiment [13] and 7.54 µM (active) in experiment [14].

As for `COc1ccc(S(=O)(=O)N(C)C[C@@H]2Oc3c(NC(=O)Nc4ccc5c(c4)OCO5)cccc3C(=O)N([C@@H](C)CO)C[C@H]2C)cc1`, the AC50 in experiment [15] is 98.3 µM (active).

With `COc1ccc(S(=O)(=O)N(C)C[C@@H]2Oc3c(NC(=O)Nc4ccc(F)cc4)cccc3C(=O)N([C@H](C)CO)C[C@H]2C)cc1`, in experiment [16], the AC50 was 41.7 µM (active).
